Measurements from patent US8946142B2, “Beta-arrestin effectors and compositions and methods of use thereof” (Trevena, Inc., priority 2012, dated 2015).
Read-outs that look alike come from different tables or passages of the source. Where a SMILES comes first, the peptide text is derived from it. Bridges are numbered along the chain shown (N, C = ends). [ ]: non-standard residue; d: D form. The star is where a group is joined. Val(3-OH) = CC(C)(O)[C@H](N)C(=O)O; Tle = CC(C)(C)[C@H](N)C(=O)O; Ac6c = NC1(C(=O)O)CCCCC1; NHCH2tBu = CC(C)(C)CN*; Aib = CC(C)(N)C(=O)O; Sar = CNCC(=O)O

Columns and labels:
human AT1R = biological target: T1, human AT1R (Homo sapiens, UniProt P30556); assay: beta-arrestin2 recruitment assay (PathHunter), human AT1R; format: cell-based; details: for Emax: 1 h, read-out: Span (relative to hAngII)
T1 sequence (P30556 1-359): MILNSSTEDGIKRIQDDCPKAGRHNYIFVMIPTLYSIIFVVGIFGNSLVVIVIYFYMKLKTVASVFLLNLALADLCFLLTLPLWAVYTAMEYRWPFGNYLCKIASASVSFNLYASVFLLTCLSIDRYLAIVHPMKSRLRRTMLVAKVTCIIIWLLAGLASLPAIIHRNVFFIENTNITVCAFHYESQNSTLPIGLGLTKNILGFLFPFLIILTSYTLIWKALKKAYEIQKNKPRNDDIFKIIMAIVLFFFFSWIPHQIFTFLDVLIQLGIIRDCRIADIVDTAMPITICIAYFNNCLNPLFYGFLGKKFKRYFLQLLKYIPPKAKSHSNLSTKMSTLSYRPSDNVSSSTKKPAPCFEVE
Procedure: (§1) The proximal event in β-arrestin function mediated by GPCRs is recruitment to receptors following ligand binding and receptor phosphorylation by GRK's. Thus, the measure of β-arrestin recruitment was used to determine ligand efficacy for β-arrestin function.
(§2) B-arrestin-2 recruitment to the human and rat angiotensin 2 type 1 receptor (human AT1R and rat AT1aR, respectively) was measured with the PathHunter™ μl-arrestin assay (DiscoveRx Corporation, Fremont Calif.). Cells, plasmid(s), and detection reagent(s) were purchased from DiscoveRx, and assays were performed per manufacturer's instructions. Human AT1R and rat AT1aR were cloned into the pCMV-ProLink vector, verified by sequencing, and transfected into PathHunter β-arrestin HEK293 cells. Stably transfected clonal cell lines were selected with Hygromycin and G418. These clonal cell lines were used for all experiments.
(§3) For assays, 4,000-8,000 cells were seeded per well in 384-well microplates “HiBase” small-volume plate in volumes of 20 uL and grown overnight in the incubator (37° C., 5% CO2, saturated humidity). Peptides were dissolved in DMSO to a concentration of 10 mM. Peptides were then further diluted in assay buffer (Hank's balanced salt solution with 20 mM HEPES) to add peptide to the cells to reach final concentrations ranging from 100 μM to 1 pM. Cells were then incubated for 60 minutes at 37° C. in 5% CO2, followed by addition of 2 μL of PathHunter Detection Reagent to each well. The microplates were then incubated at room temperature for 60 minutes, and then luminescence was measured using a PHERAstar Plus microplate reader from BMG Labtech. B-arrestin-2 recruitment to receptors was measured as relative luminescence intensity expressed in arbitrary units.

rat AT1aR = biological target: T2, rat AT1aR (Rattus norvegicus, UniProt P25095); assay: beta-arrestin2 recruitment assay (PathHunter), rat AT1aR; format: cell-based; details: for Emax: 1 h, read-out: Span (relative to hAngII)
T2 sequence (P25095 1-359): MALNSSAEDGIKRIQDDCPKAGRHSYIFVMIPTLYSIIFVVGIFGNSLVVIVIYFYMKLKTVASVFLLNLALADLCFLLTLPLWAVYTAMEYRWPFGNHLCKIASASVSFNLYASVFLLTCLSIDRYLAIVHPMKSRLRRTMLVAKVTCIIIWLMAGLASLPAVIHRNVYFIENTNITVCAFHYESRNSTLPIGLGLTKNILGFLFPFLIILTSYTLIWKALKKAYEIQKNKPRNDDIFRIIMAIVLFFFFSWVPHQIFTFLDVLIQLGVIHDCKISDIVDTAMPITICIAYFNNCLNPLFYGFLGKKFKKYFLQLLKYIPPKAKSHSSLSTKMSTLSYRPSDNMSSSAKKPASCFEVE
Procedure: as §1, §2, §3

Compound | Emax (human AT1R) [%] | EC50 (human AT1R; read-out: EC50) [nM] | EC50 (human AT1R; read-out: pEC50 (converted)) [nM] | Emax (rat AT1aR) [%] | EC50 (rat AT1aR; read-out: EC50) [nM] | EC50 (rat AT1aR; read-out: pEC50 (converted)) [nM]
CNCC(=O)N[C@@H](CCCNC(=N)N)C(=O)N[C@H](C(=O)N[C@@H](Cc1ccc(O)cc1)C(=O)NC1(C(=O)N[C@@H](Cc2c[nH]cn2)C(=O)N2CCC[C@H]2C(=O)NC)CCCCC1)C(C)C [SEQ ID NO: 49, Sar-Arg-Val-Tyr-cyHex-His-Pro-NH-methyl] (H-[Sar]RVY[Ac6c]HP-NHMe) | < 101 | > 3.2 | > 3.16 | < 105 | > 3.2 | > 3.16
CNCC(=O)N[C@@H](CCCNC(=N)N)C(=O)N[C@H](C(=O)N[C@@H](Cc1ccc(O)cc1)C(=O)NC1(C(=O)N[C@@H](Cc2c[nH]cn2)C(=O)N2CCC[C@H]2C(=O)NCC(=O)O)CCCCC1)C(C)C [SEQ ID NO: 32, Sar-Arg-Val-Tyr-cyHex-His-Pro-Gly] (H-[Sar]RVY[Ac6c]HPG-OH) | < 101 | > 3.2 | > 3.16 | < 105 | > 3.2 | > 3.16
CNCC(=O)N[C@@H](CCCNC(=N)N)C(=O)N[C@H](C(=O)N[C@@H](Cc1ccc(O)cc1)C(=O)NC1(C(=O)N[C@@H](Cc2c[nH]cn2)C(=O)N2CCC[C@H]2C(=O)N[C@H](C(=O)O)C(C)(C)O)CCCCC1)C(C)C [SEQ ID NO: 31, Sar-Arg-Val-Tyr-cyHex-His-Pro-AA03] (H-[Sar]RVY[Ac6c]HP[Val(3-OH)]-OH) | < 101 | > 3.2 | > 3.16 | < 105 | > 3.2 | > 3.16
CNCC(=O)N[C@@H](CCCNC(=N)N)C(=O)N[C@H](C(=O)N[C@@H](Cc1ccc(O)cc1)C(=O)N[C@H](C(=O)N[C@@H](Cc1c[nH]cn1)C(=O)N1CCC[C@H]1C(=O)N[C@H](C(=O)O)C(C)C)C(C)(C)C)C(C)C [SEQ ID NO: 29, Sar-Arg-Val-Tyr-AA02-His-Pro-Val] (H-[Sar]RVY[Tle]HPV-OH) | < 101 | > 3.2 | > 3.16 | < 105 | > 3.2 | > 3.16
CNCC(=O)N[C@@H](CCCNC(=N)N)C(=O)N[C@H](C(=O)N[C@@H](Cc1ccc(O)cc1)C(=O)NC1(C(=O)N[C@@H](Cc2c[nH]cn2)C(=O)N2CCC[C@H]2C(=O)N[C@@H](CC(N)=O)C(=O)O)CCCCC1)C(C)C [SEQ ID NO: 36, Sar-Arg-Val-Tyr-cyHex-His-Pro-Asn] (H-[Sar]RVY[Ac6c]HPN-OH) | < 101 | > 3.2 | > 3.16 | < 105 | > 3.2 | > 3.16
CCNC(=O)[C@@H]1CCCN1C(=O)[C@H](Cc1c[nH]cn1)NC(=O)C1(NC(=O)[C@H](Cc2ccc(O)cc2)NC(=O)[C@@H](NC(=O)[C@H](CCCNC(=N)N)NC(=O)CNC)C(C)C)CCCCC1 [SEQ ID NO: 48, Sar-Arg-Val-Tyr-cyHex-His-Pro-NH-ethyl] (H-[Sar]RVY[Ac6c]HP-NHEt) | < 101 | > 3.2 | > 3.16 | < 105 | > 3.2 | > 3.16
CNCC(=O)N[C@@H](CCCNC(=N)N)C(=O)N[C@H](C(=O)N[C@@H](Cc1ccc(O)cc1)C(=O)N[C@H](C(=O)N[C@@H](Cc1c[nH]cn1)C(=O)N1CCC[C@H]1C(=O)N[C@H](C(=O)O)[C@@H](C)O)C(C)(C)C)C(C)C [SEQ ID NO: 30, Sar-Arg-Val-Tyr-AA02-His-Pro-Thr] (H-[Sar]RVY[Tle]HPT-OH) | < 101 | > 3.2 | > 3.16 | < 105 | > 3.2 | > 3.16
CNCC(=O)N[C@@H](CCCNC(=N)N)C(=O)N[C@H](C(=O)N[C@@H](Cc1ccc(O)cc1)C(=O)NC1(C(=O)N[C@@H](Cc2c[nH]cn2)C(=O)N2CCC[C@H]2C(=O)N[C@@H](CCC(=O)O)C(=O)O)CCCCC1)C(C)C [SEQ ID NO: 43, Sar-Arg-Val-Tyr-cyHex-His-Pro-Glu] (H-[Sar]RVY[Ac6c]HPE-OH) | < 101 | > 3.2 | > 3.16 | < 105 | > 3.2 | > 3.16
CNCC(=O)N[C@@H](CCCNC(=N)N)C(=O)N[C@H](C(=O)N[C@@H](Cc1ccc(O)cc1)C(=O)NC1(C(=O)N[C@@H](Cc2c[nH]cn2)C(=O)N2CCC[C@H]2C(=O)NCC(C)(C)C)CCCCC1)C(C)C [SEQ ID NO: 47, Sar-Arg-Val-Tyr-cyHex-His-Pro-NH-neopentyl] (H-[Sar]RVY[Ac6c]HP-NHCH2tBu) | < 101 | > 3.2 | > 3.16 |  |  | 
CNCC(=O)N[C@@H](CCCNC(=N)N)C(=O)N[C@H](C(=O)N[C@@H](Cc1ccc(O)cc1)C(=O)NC1(C(=O)N[C@@H](Cc2c[nH]cn2)C(=O)N2CCC[C@H]2C(=O)NC(C)(C)C(=O)O)CCCCC1)C(C)C [SEQ ID NO: 35, Sar-Arg-Val-Tyr-cyHex-His-Pro-AA01] (H-[Sar]RVY[Ac6c]HP[Aib]-OH) | < 101 | > 3.2 | > 3.16 | < 105 | > 3.2 | > 3.16
CNCC(=O)N[C@@H](CCCNC(=N)N)C(=O)N[C@H](C(=O)N[C@@H](Cc1ccc(O)cc1)C(=O)NC(C)(C)C(=O)N[C@@H](Cc1c[nH]cn1)C(=O)N1CCC[C@H]1C(=O)N[C@H](C(=O)O)[C@@H](C)O)C(C)C [SEQ ID NO: 40, Sar-Arg-Val-Tyr-AA01-His-Pro-Thr] (H-[Sar]RVY[Aib]HPT-OH) | < 101 | > 3.2 | > 3.16 | < 105 | > 3.2 | > 3.16
CC[C@H](C)[C@@H]1NC(=O)[C@H](NC(=O)[C@@H](NC(=O)[C@H](CCCNC(=N)N)NC(=O)CNC)C(C)C)CSSC[C@@H](C(=O)N[C@H](C)C(=O)O)NC(=O)[C@H](Cc2c[nH]cn2)NC1=O [SEQ ID NO: 52, Sar-Arg-Val-D-Cys-Ile-His-Cys-D-Ala] (H-[Sar]RV[dC]IHC[dA]-OH; disulfide 4-7; N-terminus and C-terminus assumed) | < 101 |  |  | < 105 |  | 
CNCC(=O)N[C@@H](CCCNC(=N)N)C(=O)N[C@H](C(=O)N[C@@H](Cc1ccc(O)cc1)C(=O)NC1(C(=O)N[C@@H](Cc2c[nH]cn2)C(=O)N2CCC[C@H]2C(=O)O)CCCCC1)C(C)C [SEQ ID NO: 41, Sar-Arg-Val-Tyr-cyHex-His-Pro] (H-[Sar]RVY[Ac6c]HP-OH) | < 101 | > 3.2 | > 3.16 | < 105 | > 3.2 | > 3.16
CNCC(=O)N[C@@H](CCCNC(=N)N)C(=O)N[C@H](C(=O)N[C@@H](Cc1ccc(O)cc1)C(=O)NC1(C(=O)N[C@@H](Cc2c[nH]cn2)C(=O)N2CCC[C@H]2C(=O)N[C@@H](CCCCN)C(=O)O)CCCCC1)C(C)C [SEQ ID NO: 50, Sar-Arg-Val-Tyr-cyHex-His-Pro-Lys] (H-[Sar]RVY[Ac6c]HPK-OH) | < 101 | > 3.2 | > 3.16 | < 105 | > 3.2 | > 3.16
CNCC(=O)N[C@@H](CCCNC(=N)N)C(=O)N[C@H](C(=O)N[C@@H](Cc1ccc(O)cc1)C(=O)NC1(C(=O)N[C@@H](Cc2c[nH]cn2)C(=O)N2CCC[C@H]2C(=O)N[C@@H](CS)C(=O)O)CCCCC1)C(C)C [SEQ ID NO: 34, Sar-Arg-Val-Tyr-cyHex-His-Pro-Cys] (H-[Sar]RVY[Ac6c]HPC-OH) | < 101 | > 3.2 | > 3.16 | < 105 | > 3.2 | > 3.16
